Measured values from patent US20210392892A1, “COMPOSITIONS COMPRISING PYRIDINE CARBOXYLATE HERBICIDES AND ACETYL COA CARBOXYLASE (ACCASE) INHIBITOR HERBICIDES” (Corteva Agriscience LLC, priority 2018, published 2021).

Key:
Experiment in all cases: Greenhouse postemergence herbicidal effect (visual injury)
Type in all cases: in vivo
[1] = tested on: CIRAR, Cirsium arvense (Canadian thistle)
Description: (§1) Seeds of the desired test plant species were planted in a 90:10% v/v (volume/volume) mixture of PRO-MIX® BX (Premier Tech Horticulture, Quakertown, Pa., USA) and PROFILE® GREENS GRADE™ (Profile Products LLC, Buffalo Grove, Ill., USA) planting mixture, which typically has a pH of 5.2 to 6.2 and an organic matter content of at least 50 percent, in plastic pots with a surface area of 103.2 square centimeters (cm^2). In some aspects, to help ensure good germination and healthy plants, a fungicide treatment and/or other chemical or physical treatment was applied. The plants were grown for 7-36 days (d) in a greenhouse with an approximate 14-hour (h) photoperiod which was maintained at about 23° C. during the day and 22° C. during the night. Nutrients and water were added on a regular basis and supplemental lighting was provided with overhead metal halide 1000-Watt lamps as necessary. The plants were employed for testing when they reached the second or third true leaf stage.
(§2) Emulsifiable concentrates of each of each pyridine carboxylate herbicide (Compound A or Compound B) were prepared at 100 grams acid equivalent per liter (g ae/L). The emulsifiable concentrates also included a safener, cloquintocet-mexyl, at 120 grams active ingredient per liter (g ai/L), unless otherwise noted below. An aliquot of each emulsifiable concentrate was placed in a 25 mL glass vial and diluted with an aqueous mixture of 1.25% (v/v) ACTIROB® B esterified rapeseed oil (Bayer Crop Science, Research Triangle Park, N.C., USA) or MSO® Concentrate with LECI-TECH® methylated soybean oil (Loveland Products, Loveland, Colo., USA) to obtain concentrated stock solutions at the highest application rate for each herbicide, based upon a 12 milliliter (mL) application volume at a rate of 187 liters per hectare (L/ha). The concentrated stock solutions were further diluted with an aqueous mixture of 1.25% v/v ACTIROB® B or MSO® Concentrate with LECI-TECH® to obtain stock solutions at reduced application rates for each herbicide. Spray solutions of the herbicide combinations (Compound A or Compound B plus ACCase inhibitor herbicide) were prepared by adding weighed amounts or aliquots of the ACCase inhibitor herbicide to the stock solutions of Compound A or Compound B to form 12-mL spray solutions in two-way combinations.
(§3) The spray solutions were applied to the plant material with an overhead Mandel track sprayer equipped with 8002E nozzles calibrated to deliver 187 L/ha over an application area of 0.503 square meters (m^2) at a spray height of 18 inches (43 centimeters (cm)) above the average plant canopy. Control plants were sprayed in the same manner with the solvent blank. All pyridine carboxylate herbicide (component a) application rates are given as “g ae/ha” and all ACCase inhibitor herbicide (component b) application rates are given as “g ai/ha.”
(§4) The treated plants and control plants were placed in a greenhouse as described above and watered by sub-irrigation to prevent wash-off of the test compounds. After 20-22 d, the condition of the test plants as compared with that of the control plants was determined visually and scored on a scale of 0 to 100 percent where 0 corresponds to no injury and 100 corresponds to complete kill.

[2] = tested on: HELAN, Helianthus annuus (common sunflower)
Description: as §1, §2, §3, §4

[3] = tested on: SETFA, Setaria faberi (giant foxtail)
Description: as §1, §2, §3, §4

[4] = tested on: KCHSC, Kochia scoparia (kochia)
Description: as §1, §2, §3, §4

[5] = tested on: POLCO, Polygonum convolvulus (wild buckwheat)
Description: as §1, §2, §3, §4

[6] = tested on: LOLMG, Lolium multiflorum subsp. gaudini (annual ryegrass); settings: with cloquintocet-mexyl
Description: as §1, §2, §3, §4

[7] = tested on: IPOHE, Ipomoea hederacea (ivyleaf morningglory)
Description: as §1, §2, §3, §4

[8] = tested on: STEME, Stellaria media (chickweed)
Description: as §1, §2, §3, §4

[9] = tested on: CYPDI, Cyperus difformis (small-flower flatsedge); settings: with cloquintocet-mexyl
Description: as §1, §2, §3, §4

[10] = tested on: BRSNW, Brassica napus (winter rape)
Description: as §1, §2, §3, §4

[11] = tested on: RUMOB, Rumex obtusifolius (broad-leaf dock)
Description: as §1, §2, §3, §4

[12] = tested on: BRSNN, Brassica napus (spring rape); settings: with cloquintocet-mexyl
Description: as §1, §2, §3, §4

[13] = tested on: ORYSA, Oryza sativa (common rice); settings: with cloquintocet-mexyl
Description: as §1, §2, §3, §4

ZEAMX, Zea mays (maize) = settings: with cloquintocet-mexyl
Description: as §1, §2, §3, §4

[14] = tested on: VIOTR, Viola tricolor (wild pansy)
Description: as §1, §2, §3, §4

[15] = 7.5 g ae/ha, without cloquintocet-mexyl
[16] = 10 g ae/ha, without cloquintocet-mexyl
[17] = 7.5 g ae/ha, with cloquintocet-mexyl
[18] = 10 g ae/ha, with cloquintocet-mexyl

`N#CCOC(=O)c1nc(-c2ccc3cc[nH]c3c2F)c(F)c(N)c1Cl` [Compound A, cyanomethyl 4-amino-3-chloro-5-fluoro-6-(7-fluoro-1H-indol-6-yl)pyridine-2-carboxylate] was tested, and the “% visual injury, Obs” value [1, 15] was 40%, the “% visual injury, Obs” value [1, 16] was 28% and the “% visual injury, Obs” value ([1]; CIRAR, Compound A 7.5 g/ha, Fluazifop 0 g/ha) was 40%. For the same molecule, the “% visual injury, Obs” value ([1]; CIRAR, Compound A 10 g/ha, Fluazifop 0 g/ha) was 28%, the “% visual injury, Obs” value [2, 15] was 95% and the “% visual injury, Obs” value [2, 16] was 100%. For the same molecule, the “% visual injury, Obs” value ([2]; HELAN, Compound A 7.5 g/ha, Fluazifop 0 g/ha) was 95%, the “% visual injury, Obs” value ([2]; HELAN, Compound A 10 g/ha, Fluazifop 0 g/ha) was 100% and the “% visual injury, Obs” value [3, 17] was 0%. For the same molecule, the “% visual injury, Obs” value [3, 18] was 0%, the “% visual injury, Obs” value ([3]; SETFA, Compound A 7.5 g/ha, Fluazifop 0 g/ha) was 0% and the “% visual injury, Obs” value ([3]; SETFA, Compound A 7.5 g/ha, Haloxyfop-R-methyl 0 g/ha) was 63%. The “% visual injury, Obs” value ([3]; SETFA, Compound A 7.5 g/ha, Quizalofop-P-ethyl 0 g/ha) was 63%, the “% visual injury, Obs” value ([3]; SETFA, Compound A 10 g/ha, Fluazifop 0 g/ha) was 0% and the “% visual injury, Obs” value ([3]; SETFA, Compound A 10 g/ha, Haloxyfop-R-methyl 0 g/ha) was 60%. The “% visual injury, Obs” value ([3]; SETFA, Compound A 10 g/ha, Quizalofop-P-ethyl 0 g/ha) was 60%, the “% visual injury, Obs” value [4, 17] was 63% and the “% visual injury, Obs” value [4, 15] was 73%. For the same molecule, the “% visual injury, Obs” value [4, 18] was 70%, the “% visual injury, Obs” value [4, 16] was 88% and the “% visual injury, Obs” value ([4]; KCHSC, Compound A 7.5 g/ha, Fluazifop 0 g/ha) was 73%. The “% visual injury, Obs” value ([4]; KCHSC, Compound A 10 g/ha, Fluazifop 0 g/ha) was 88%, the “% visual injury, Obs” value [5, 15] was 80% and the “% visual injury, Obs” value [5, 16] was 78%. The “% visual injury, Obs” value ([5]; POLCO, Compound A 7.5 g/ha, Fluazifop 0 g/ha) was 80%, the “% visual injury, Obs” value ([5]; POLCO, Compound A 10 g/ha, Fluazifop 0 g/ha) was 78% and the “% visual injury, Obs” value ([6]; 7.5 g ae/ha) was 0%. For the same molecule, the “% visual injury, Obs” value ([6]; 10 g ae/ha) was 3%, the “% visual injury, Obs” value [7, 15] was 10% and the “% visual injury, Obs” value [7, 16] was 15%. The “% visual injury, Obs” value ([7]; IPOHE, Compound A 7.5 g/ha, Fluazifop 0 g/ha) was 10%, the “% visual injury, Obs” value ([7]; IPOHE, Compound A 10 g/ha, Fluazifop 0 g/ha) was 15% and the “% visual injury, Obs” value [8, 17] was 90%. For the same molecule, the “% visual injury, Obs” value [8, 15] was 73%, the “% visual injury, Obs” value [8, 18] was 85% and the “% visual injury, Obs” value [8, 16] was 88%. The “% visual injury, Obs” value ([8]; STEME, Compound A 7.5 g/ha, Fluazifop 0 g/ha) was 73%, the “% visual injury, Obs” value ([8]; STEME, Compound A 10 g/ha, Fluazifop 0 g/ha) was 88% and the “% visual injury, Obs” value ([9]; 7.5 g ae/ha) was 60%. The “% visual injury, Obs” value ([9]; 10 g ae/ha) was 72%, the “% visual injury, Obs” value [10, 15] was 50% and the “% visual injury, Obs” value [10, 16] was 65%. For the same molecule, the “% visual injury, Obs” value ([10]; BRSNW, Compound A 7.5 g/ha, Fluazifop 0 g/ha) was 50%, the “% visual injury, Obs” value ([10]; BRSNW, Compound A 10 g/ha, Fluazifop 0 g/ha) was 65% and the “% visual injury, Obs” value [11, 17] was 13%. The “% visual injury, Obs” value [11, 15] was 38%, the “% visual injury, Obs” value [11, 18] was 8% and the “% visual injury, Obs” value [11, 16] was 35%. The “% visual injury, Obs” value ([11]; RUMOB, Compound A 7.5 g/ha, Fluazifop 0 g/ha) was 38%, the “% visual injury, Obs” value ([11]; RUMOB, Compound A 10 g/ha, Fluazifop 0 g/ha) was 35% and the “% visual injury, Obs” value ([12]; 7.5 g ae/ha) was 23%. The “% visual injury, Obs” value ([12]; 10 g ae/ha) was 45%, the “% visual injury, Obs” value ([13]; 7.5 g ae/ha) was 0% and the “% visual injury, Obs” value ([13]; 10 g ae/ha) was 0%. For the same molecule, the “% visual injury, Obs” value (ZEAMX, Zea mays (maize); 7.5 g ae/ha) was 0%, the “% visual injury, Obs” value (ZEAMX, Zea mays (maize); 10 g ae/ha) was 0% and the “% visual injury, Obs” value [14, 15] was 8%. The “% visual injury, Obs” value [14, 16] was 15%, the “% visual injury, Obs” value ([14]; VIOTR, Compound A 7.5 g/ha, Fluazifop 0 g/ha) was 8% and the “% visual injury, Obs” value ([14]; VIOTR, Compound A 10 g/ha, Fluazifop 0 g/ha) was 15%.
